The source of these data is US20250249001A1, “METHODS OF TREATING SUBSTANCE USE DISORDER WITH 4-(3-CYANOPHENYL)-6-PYRIDINYLPYRIMIDINE MGLU5 NEGATIVE ALLOSTERIC MODULATORS” (Tempero Bio, Inc., priority 2022, published 2025).

Holding throughout (format): in vivo, Sprague-Dawley rats
Test [1] has as its system oxycodone self-administration in rats. Description: Intravenous oxycodone self-administration, fixed ratio FR3. The note with it: for oxycodone self-administration, Mean Diff., Vehicle vs. treatment: FR3. The method, then: Animals. Adult male Sprague-Dawley rats (300-325 g at arrival) from Envigo (Indiana, USA) were used. Upon arrival, rats were single housed in standard cages with filter tops, and they were acclimated for at least 7 days before any treatment. All rats were examined and handled prior to initiation of the study. During the study, 12 h/12 h light/dark cycles were maintained. The room temperature was 21-23° C. with a relative humidity maintained at 30-70%. Water was provided ad libitum for the duration of the study.
Test Article(s) • Oxycodone (0.05 mg/kg/infusion; Sigma-Aldrich, USA) was dissolved in saline and infused at a rate of 0.1 ml/infusion. • Compound 1 (0.3, 1, and 3 mg/kg) was formulated in 10% Solutol HS15+90% (10% aqueous hydroxypropyl)-β-cyclodextrin and injected IP 30 minutes prior to test at a dose volume of 2 ml/kg. In the reinstatement study only 3 mg/kg was used. • MTEP (3-((2-Methyl-4-thiazolyl)ethynyl)pyridine; 3 mg/kg), was dissolved in saline and injected IP 30 minutes prior to testing at a dose volume of 2 ml/kg.
Apparatus. Intravenous drug self-administration took place in experimental chambers within sound-attenuating cubicles equipped with an exhaust fan (Med Associates, VT). Each chamber contains two response levers situated on one wall of the chamber. A stimulus light was located above each lever and a house light was located at the top of the opposite wall. A pellet receptacle was situated between the two levers for delivery of food pellets (Bio-Serv's Dustless Precision Pellets #F0165, 45 mg). An infusion pump mounted above each chamber delivers drug solutions via Tygon tubing connected to a single channel fluid swivel, which was mounted on a balance arm above the operant chamber. The output of the liquid swivel was attached to the externalized terminus of the intravenous catheter.
Surgery and catheter maintenance: The rats were first implanted with jugular vein catheters (Access Technologies, USA). After the surgery, catheters were flushed daily with 0.2 ml of heparin-Enrofloxacin solution to avoid clogging and to ensure smooth drug infusion. The flushing liquid was made in 50 ml volume units which contained 1500 U Heparin and 320 mg Enrofloxacin (Baytril®). The solution was stored in sterilized vials in a 4° C. refrigerator. After the rats recovered from catheterization surgery, they were food-restricted (about 15 or 20 g/day) and maintained at ˜85% of their free-feeding, age-matched control body weight throughout the study. Starting from the 3rd day of food restriction, rats were trained to press the active lever (one of the two levers) to obtain food. During the study, Methohexital sodium (Brevital®, Henry Schein Animal Health, USA) was used twice for catheter evaluation and thereby for indirect infusion confirmation. Brevital is a short-acting barbiturate that, when infused through the catheter, produces overt signs of sedation within seconds. […] The rats were first implanted with jugular vein catheters (Access Technologies, USA). After the surgery, catheters were flushed daily with 0.2 ml of heparin-Enrofloxacin solution to avoid clogging and to ensure smooth drug infusion. The flushing liquid was made in 50 ml volume units which contained 1500 U Heparin and 320 mg Enrofloxacin (Baytril®). The solution was stored in sterilized vials in a 4° C. refrigerator. After the rats recovered from catheterization surgery, they were food-restricted (about 15 or 20 g/day) and maintained at ˜85% of their free-feeding, age-matched control body weight throughout the study. Starting from the 3rd day of food restriction, rats were trained to press the active lever (one of the two levers) to obtain food. During the study, Methohexital sodium (Brevital®, Henry Schein Animal Health, USA) was used a few times for catheter evaluation and thereby for indirect infusion confirmation. Brevital is a short-acting barbiturate that, when infused through the catheter, produces overt signs of sedation within seconds. […]

Test [2] concerns oxycodone reinstatement in rats. As to the kind of experiment: Yohimbine-induced reinstatement of oxycodone self-administration. The note with it: 3 mg/kg thirty minutes before yohimbine 2 mg/kg; Ps<0.001. How it is done: Evaluation of Compound 1 on Oxycodone Reinstatement. After completion of testing rats were re-trained with oxycodone for one week to ensure stable baseline. Rats then underwent a 6-day extinction where only saline infusion occurred when active lever was pressed. Meanwhile, the rats were divided into 3 groups: All rats received one injection of alpha-2 adrenergic antagonist yohimbine (2 mg/kg) with 0 min pretreatment (rats were placed into the training box immediately). Thirty minutes before yohimbine treatment, one group of rats received saline, another group received MTEP 3 mg/kg injection, and the 3rd group received Compound 1 (3 mg/kg). Yohimbine-induced reinstatement was re-tested two more times in the same rats 3 days and 6 days after the first test, under continuous extinction procedure.
Statistical Analysis. Prism 9.40 software package Version 9 was used for statistical analysis and graphing. The number of active lever responses were recorded during each session and compared between treatment groups. A one-way mixed-effects model (REML) of ANOVA followed by Dunnett's post hoc tests were used to analyze efficacy of Compound 1 and MTEP on oxycodone self-administration in stages I (The repeated measure ANOVA was not totally applicable due to a few outlier data points, which are removed), and one-way mixed-effects model (REML) of ANOVA followed by Tukey's post hoc tests were used in Stage II. An effect was considered significant if P<0.05. Data were represented as the mean and standard error to the mean (s.e.m). Statistical outliers which exceeded mean +/− (2× standard deviation) of the group were removed from the analysis.

For test [3], the system named is cocaine reinstatement in rats. As to the kind of experiment: Yohimbine-induced reinstatement of cocaine self-administration (Stage II). To be noted: 3 mg/kg co-administered with yohimbine 2 mg/kg; Ps<0.001.
Setting [4] is: 3 mg/kg IP 30 minutes prior to test.

With `N#Cc1cc(Cl)cc(-c2cc(-c3ccc(F)cn3)ncn2)c1` [Compound 1, 3-chloro-5-[6-(5-fluoropyridin-2-yl)pyrimidin-4-yl]benzonitrile], the figures for the “oxycodone self-administration, Mean Diff., Vehicle vs. treatment” value in test [1] (0.3 mg/kg IP 30 minutes prior to test), in test [1] (1 mg/kg IP 30 minutes prior to test) and in test [1] (setting [4]) were 5.438, 6.283 and 9.483, respectively. Moreover, in test [1] (all three doses, 0.3, 1 and 3 mg/kg IP), the “oxycodone self-administration vs vehicle” value is “significantly attenuated oxycodone self-administration”. Also, in test [2], the “yohimbine-induced oxycodone reinstatement vs Vehicle-Yohimbine group” value is recorded as “attenuated yohimbine-induced oxycodone reinstatement”. Also, the yohimbine-induced cocaine reinstatement result in test [3] is on record as “almost entirely prevented cocaine reinstatement”.

For the compound `Cc1nc(C#Cc2cccnc2)cs1` [MTEP, 3-((2-Methyl-4-thiazolyl)ethynyl)pyridine], the “self-administered oxycodone infusion vs vehicle treatment” value in test [1] (3 mg/kg IP) is listed as “significantly decreased self-administered oxycodone infusion”. Further, the “oxycodone self-administration, Mean Diff., Vehicle vs. treatment” value in test [1] (setting [4]) was found to be 7.188. For the same compound, the “yohimbine-induced oxycodone reinstatement vs Vehicle-Yohimbine group” value in test [2] was “attenuated yohimbine-induced oxycodone reinstatement”. In addition, the yohimbine-induced cocaine reinstatement result in test [3] is “almost entirely prevented cocaine reinstatement”.
